Tests used:
Test in all cases: cell-based
[1] = molecular target: PTGER2 (EP2) (Homo sapiens, UniProt P43116)
[2] = molecular target: EP2 (Homo sapiens, UniProt P43116);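 further: SF295 glioblastoma cells with endogenous EP2 only, PGE2-stimulated cAMP accumulation read by HTRF competitive immunoassay, 45 min pre-incubation then 30 min at room temperature, IBMX in buffer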
Method: The antagonistic activities of the compounds of formula (I) on the EP2 and EP4 receptors are also determined in accordance with the following experimental method.
Human tumor cell lines expressing endogenously either EP4 or EP2 are used and cAMP accumulation in cells upon PGE2 stimulation is monitored. SF295 glioblastoma cells express high endogenous EP2 and no EP4,whereas BT549 breast cancer cells, express high endogenous EP4 levels and very low EP2 levels.
As a detection method for cAMP the HTRF (homogeneous time resolved fluorescence) Cisbio kit (HTRF cAMP dynamic 2 kit 20′000 tests Cisbio Cat. #62AM4PEC) was used, which is based on a competitive immunoassay using a Cryptate-labeled anti-cAMP antibody and d2-labeled cAMP. Native cAMP produced by cells or unlabeled cAMP (for the standard curve) compete with exogenously added d2-labeled cAMP (acceptor) for binding to monoclonal anti-cAMP-Eu3+ Cryptate (donor). A FRET signal (Fluorescence Resonance Energy Transfer) is obtained only if the labeled anti-cAMP antibody binds the d2 labelled cAMP, thus the specific signal (i.e. energy transfer) is inversely proportional to the concentration of cAMP in the standard or sample.
The SF295 cells (NCI/No. 0503170) are detached from culture dishes with a cell dissociation buffer (Invitrogen, 13151-014), and collected in growing medium (GM: RPM11640 (Invitrogen 21875)/10% FCS, 1% Penicilin/streptomycin). Cells are counted washed and resuspended in assay buffer (AB; HBSS, 20 mM HEPES, 0.2% BSA; 2 mM IBMX). 4′000 cells in 5 μl of AB are seeded per well of a small volume 384 well plate (black with flat bottom, Greiner 784076).
PGE2 (Cayman 14010, stock solution: 750 in DMSO) is used as agonist at 75 nM final concentration, corresponding to EC80.
Two point five microliters of diluted compounds are transferred into the assay plate. Plate is pre-incubated 45 minutes at room temperature. Subsequently, 2.5 microliters of PGE2 (final conc. 75 nM) are transferred into the assay plate. Plate is incubated 30 minutes at room temperature.
For each compound concentration the percentage of cAMP compared to DMSO control value as average±STDEV (each concentration is measured in duplicate) is calculated.

[3] = molecular target: EP4 (Homo sapiens, UniProt P35408);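 further: inhibition of PGE2-evoked (6 nM) cAMP accumulation in BT549 breast cancer cells endogenously expressing EP4, cAMP read by HTRF competitive immunoassay after 30 min at room temperature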
[4] = molecular target: PTRGER4 (EP4) (Homo sapiens, UniProt P35408);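 further: assay plate preincubated 15 min at 37 °C, after which PGE2 was added at 20 nM final and incubation continued 120 min at 37 °C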
PTRGER4 (EP4), sequence (P35408 whole entry): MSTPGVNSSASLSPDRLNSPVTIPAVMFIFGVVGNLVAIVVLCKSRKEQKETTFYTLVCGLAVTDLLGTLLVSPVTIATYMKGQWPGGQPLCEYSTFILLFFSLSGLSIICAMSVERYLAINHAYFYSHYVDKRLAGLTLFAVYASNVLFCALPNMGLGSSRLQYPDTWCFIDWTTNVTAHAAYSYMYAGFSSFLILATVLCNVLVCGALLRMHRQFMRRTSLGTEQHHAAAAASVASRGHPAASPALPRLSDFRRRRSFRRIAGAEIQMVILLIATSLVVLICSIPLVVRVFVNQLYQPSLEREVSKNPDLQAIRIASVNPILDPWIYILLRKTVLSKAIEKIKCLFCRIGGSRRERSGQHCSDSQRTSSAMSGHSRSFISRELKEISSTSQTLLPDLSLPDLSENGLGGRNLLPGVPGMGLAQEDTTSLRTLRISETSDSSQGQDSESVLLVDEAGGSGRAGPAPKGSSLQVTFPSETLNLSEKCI

EP4, sequence (P35408 whole entry): as above
EP2, sequence (P43116 whole entry): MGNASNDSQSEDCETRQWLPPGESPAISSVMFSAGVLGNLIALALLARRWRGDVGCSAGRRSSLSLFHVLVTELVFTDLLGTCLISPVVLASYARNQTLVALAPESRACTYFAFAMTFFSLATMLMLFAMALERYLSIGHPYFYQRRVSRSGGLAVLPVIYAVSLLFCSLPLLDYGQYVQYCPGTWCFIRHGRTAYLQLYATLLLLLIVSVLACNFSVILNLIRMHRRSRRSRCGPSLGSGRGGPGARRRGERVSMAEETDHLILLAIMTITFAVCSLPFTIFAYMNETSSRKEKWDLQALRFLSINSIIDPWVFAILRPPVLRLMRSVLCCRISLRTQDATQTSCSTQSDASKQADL
PTGER2 (EP2), sequence (P43116 whole entry): as above

Row | IC50 [1] [nM] | IC50 [2] [nM] | IC50 [3] [nM] | IC50 [4] [nM] | SMILES
1 | 22 | 9 | 6 | 75 | COc1cc(-c2cc(NCCc3c(F)cc(Br)cc3F)ncn2)sc1C(=O)O [Example 176, 5-{6-[2-(4-Bromo-2,6-difluoro-phenyl)-ethylamino]-pyrimidin-4-yl}-3-methoxy-thiophene-2-carboxylic acid]
2 | 29 | 10 | 134 | 404 | CCOc1cc(-c2cc(NCCc3c(C)cccc3OC)ncn2)sc1C(=O)O [Example 178, 3-Ethoxy-5-{6-[2-(2-methoxy-6-methyl-phenyl)-ethylamino]-pyrimidin-4-yl}-thiophene-2-carboxylic acid]
3 | 119 | 52 | 221 | 674 | CCOc1cc(-c2cc(NCCc3c(F)cc(Br)cc3F)ncn2)ccc1C(=O)O [Example 180, 4-{6-[2-(4-Bromo-2,6-difluoro-phenyl)-ethylamino]-pyrimidin-4-yl}-2-ethoxy-benzoic acid]
4 | 165 | 92 | 34 | 96 | CCOc1cc(-c2cc(NCCc3ccc(Cl)c(Cl)c3C)ncn2)sc1C(=O)O [Example 181, 5-{6-[2-(3,4-Dichloro-2-methyl-phenyl)-ethylamino]-pyrimidin-4-yl}-3-ethoxy-thiophene-2-carboxylic acid]
5 | 51 | 41 | 6 | 8 | CCOc1cc(-c2cc(NCCc3cc(F)c(C(F)F)cc3OC)ncn2)sc1C(=O)O [Example 185, 5-{6-[2-(4-Difluoromethyl-5-fluoro-2-methoxy-phenyl)-ethylamino]-pyrimidin-4-yl}-3-ethoxy-thiophene-2-carboxylic acid]
6 | 130 | 260 | 200 | 216 | COc1cc(C(F)F)c(F)cc1CCNc1cc(-c2ccc(C(=O)O)c(SC)c2)ncn1 [Example 187, 4-{6-[2-(4-Difluoromethyl-5-fluoro-2-methoxy-phenyl)-ethylamino]-pyrimidin-4-yl}-2-methylsulfanyl-benzoic acid]
7 | 235 | 400 | 107 | 113 | COc1cc(C(F)(F)F)c(Cl)cc1CCNc1cc(-c2ccc(C(=O)O)c(SC)c2)ncn1 [Example 196, 4-{6-[2-(5-Chloro-2-methoxy-4-trifluoromethyl-phenyl)-ethylamino]-pyrimidin-4-yl}-2-methylsulfanyl-benzoic acid]
8 | 81 | 27 | 11 | 92 | CCOc1cc(-c2cc(NCCc3c(C)cc(C)cc3OC)ncn2)sc1C(=O)O [Example 203, 3-Ethoxy-5-{6-[2-(2-methoxy-4,6-dimethyl-phenyl)-ethylamino]-pyrimidin-4-yl}-thiophene-2-carboxylic acid]
9 | 294 | 615 | 21 | 20 | CCOc1cc(-c2cc(NCCc3ccc(OC(F)(F)F)cc3OC)ncn2)sc1C(=O)O [Example 210, 3-Ethoxy-5-{6-[2-(2-methoxy-4-trifluoromethoxy-phenyl)-ethylamino]-pyrimidin-4-yl}-thiophene-2-carboxylic acid]
10 | 106 | 148 | 170 | 126 | CCOc1cc(C(F)(F)F)ccc1CCNc1cc(-c2ccc(C(=O)O)c(OCC)c2)ncn1 [Example 211, 2-Ethoxy-4-{6-[2-(2-ethoxy-4-trifluoromethyl-phenyl)-ethylamino]-pyrimidin-4-yl}-benzoic acid]

Row | SMILES | IC50 [1] [nM] | IC50 [2] [nM] | IC50 [3] [nM] | IC50 [4] [nM]
11 | COc1cc(C(F)F)c(F)cc1CCNc1cc(-c2ccc(C(=O)O)c(OC3CCC3)c2)ncn1 [Example 184, 2-Cyclobutoxy-4-{6-[2-(4-difluoromethyl-5-fluoro-2-methoxy-phenyl)-ethylamino]pyrimidin-4-yl}-benzoic acid] | 127 | 630 | 250 | 140

Source: patent publication US11712438B2, “Phenyl derivatives as PGE2 receptor modulators” (IDORSIA PHARMACEUTICALS LTD, priority 2017, dated 2023)
